Experimental data published in paper PMC5848173, “PhcrTx2, a New Crab-Paralyzing Peptide Toxin from the Sea Anemone Phymanthus crucifer” (Toxins, 2018).
No end group written: not given here.

Legend:
[1] = test system: glutamate-gated currents in snail neurons; assay: Glutamate-gated currents in isolated snail neurons (whole-cell patch clamp); type: cell-based, Helix aspersa; conditions: glutamate 1 mM
Procedure: The effects of PhcrTx2 were studied in isolated mammalian and snail neurons using the whole cell patch-clamp technique. Animal care and procedures were in accordance with the National Institutes of Health Guide for the Care and Use of Laboratory Animals. All efforts were made to minimize animal suffering. The number of animals used for this work was kept to the minimum necessary for a meaningful interpretation of the data.
Experiments to study glutamate-activated currents were performed in isolated neurons of the land snail Helix aspersa. The subesophageal mass of the snail was dissected, and put into the Ringer solution for snails (Supplementary Table S4) containing trypsin (2 mg/mL for 30 min, at 37 °C). After enzymatic treatment, the preparation was washed with normal solution for snails, and the neurons were mechanically dissociated, plated on glass coverslips (Corning) pretreated with poly-D-lysine (Sigma-Aldrich), and placed onto 35-mm culture dishes (Corning). Neurons were maintained at room temperature (23–25 °C) for at least 30 min before using, in order to allow the isolated cells to adhere to the coverslips. The whole-cell recording was carried out using the same experimental conditions that were described in Section 5.2.2.
Glutamate currents were elicited by a fast glutamate application (about 40 ms) by shifting one of the three outlets of a fast change perfusion system (SF-77B, Warner Inst., Hamden, CT, USA) while keeping the cell at a holding potential (Vh) of −100 mV. The interval between glutamate applications was one minute, to guarantee that the current completely recovered from desensitization. The pH of glutamate solution was checked before each experiment to avoid the potential activation of proton-gated currents. At the beginning of this study, experiments were designed to compare the effect of the toxin using two application protocols.
The solutions used in the experiments are depicted in Supplementary Table S4. The concentration-response curves were fitted to the Hill equation following the procedure described in Section 5.2.2.

[2] = Anthopleura elegantissima toxins; ref [5],[38]; cited from earlier work
Source text: (§1) The inhibition of PhcrTx2 on glutamate-gated currents in snail neurons, and also on voltage-activated K^+ currents in DRG neurons, seems to be of about similar potency and slightly different in efficacy. PhcrTx2 also acted on voltage-dependent Na^+-channels of DRG neurons but with lower efficacy, in comparison with its effect on K^+ channels. […] These facts resemble previous re ...

[3] = test system: insect and mammalian Nav channels; conditions: ref [38],[58]; cited from earlier work
Source text: as §1

[4] = test system: heteromeric channels that contain the ASIC3 subunit; conditions: except the ASIC2a + 3 current; ref [38]; cited from earlier work
Source text: as §1

[5] = test system: Kv3.4 channels; conditions: ref [38],[58]; cited from earlier work
Source text: as §1

[6] = test system: ASIC3; conditions: ref [38], cited from earlier work
Source text: as §1

[7] = test system: crabs; conditions: Antheopsis maculata toxin; ref [21]; cited from earlier work
Source text: Many of these peptides have been classified as voltage-gated sodium channel toxins, whereas few other crab-paralyzing peptides act on different targets, such as voltage-gated potassium channels. On the other hand, other paralyzing toxins seem to belong to new classes of toxins. In this work, we found a diversity of paralyzing toxins from the sea anemone P. crucifer by using a crab toxicity assay for biological activity screening during the purification process. Sixteen chromatographic fractions sh ... || (+ 1 further places)

N[C@@H](CCC(=O)O)C(=O)O [glutamate]
glutamate-evoked current at positive potential ([1]; 80 mV, n = 5): 0.3 ± 0.1 nA | glutamate-evoked current ([1]; holding potential −100 mV, n = 5, average): about 2.6 ± 1.4 nA | reversal potential of glutamate-evoked current ([1]; average, "close to"): ~0 mV

APETx1: toxin from Anthopleura elegantissima (UniProtKB P61541) (GTTCYCGKTIGIYWFGTKTCPSNRGYTGSCGYFLGICCYPVD; UniProt P61541 1-42, looked up)
target selectivity [2]: lack of target selectivity

APETx2: toxin from Anthopleura elegantissima, ASIC3 blocker (UniProtKB P61542) (GTACSCGNSKGIYWFYRPSCPTDRGYTGSCRYFLGTCCTPAD; UniProt P61542 1-42, looked up)
effect on Nav channels [3]: inhibiting the sodium conductance without affecting the inactivation and shifting activation to a depolarizing direction | effect on heteromeric channels containing ASIC3 [4]: affects heteromeric channels that contain the ASIC3 subunit, except the ASIC2a + 3 current | target selectivity [2]: lack of target selectivity | inhibition of Kv3.4 channels [5]: partially inhibits Kv3.4 channels | IC50 ([6]; reversible blocker, read-out: IC50, peak component of the ASIC3 current): 63 nM | effect on the sustained component of ASIC3 current ([6]; sustained component): no effect

Am II: crab-paralyzing toxin from Antheopsis maculata (UniProtKB P69930) (ALLSCRCEGKTEYGDKWLFHGGCPNNYGYNYKCFMKPGAVCCYPQN; ends and bridges not checked; cysteine pairing not given here; UniProt P69930 33-78, looked up)
crab-paralyzing activity [7]: crab-paralyzing toxin
